From patent US12365696B2, “Small-molecule focal adhesion kinase (FAK) inhibitors” (DANA-FARBER CANCER INSTITUTE, INC., priority 2019, dated 2025)

Legend:
Experiment in all cases: KINOMEscan
Assay type in all cases: binding
[1] = target: GCN2(Kin.Dom.2, S808G) (Homo sapiens (Human), UniProt Q9P2K8, S808G); settings: 10000 nM, read-out: Percent Control
[2] = target: CAMK2G (Homo sapiens (Human), UniProt Q13555); settings: 10000 nM, read-out: Percent Control
[3] = target: NDR1 (Homo sapiens (Human), UniProt Q15208); settings: NDR1, 10000 nM; read-out: Percent Control
[4] = target: YANK3 (Homo sapiens (Human), UniProt Q86UX6); settings: YANK3, 10000 nM; read-out: Percent Control
[5] = target: LRRK2(G2019S) (Homo sapiens (Human), UniProt Q5S007, G2019S); settings: 10000 nM, read-out: Percent Control
[6] = target: RIPK2 (Homo sapiens (Human), UniProt O43353); settings: RIPK2, 10000 nM; read-out: Percent Control
[7] = target: EPHB6 (Homo sapiens (Human), UniProt O15197); settings: EPHB6, 10000 nM; read-out: Percent Control
[8] = target: CSNK2A2 (Homo sapiens (Human), UniProt P19784); settings: CSNK2A2, 10000 nM; read-out: Percent Control
[9] = target: ACVR1B (Homo sapiens (Human), UniProt P36896); settings: 10000 nM, read-out: Percent Control
[10] = target: FLT1 (Homo sapiens (Human), UniProt P17948); settings: FLT1, 10000 nM; read-out: Percent Control
[11] = target: CDK11 (Homo sapiens (Human), UniProt Q9BWU1); settings: CDK11, 10000 nM; read-out: Percent Control
[12] = target: HIPK3 (Homo sapiens (Human), UniProt Q9H422); settings: HIPK3, 10000 nM; read-out: Percent Control
[13] = target: FLT3(D835H) (Homo sapiens (Human), UniProt P36888, D835H); settings: 10000 nM, read-out: Percent Control
[14] = target: LCK (Homo sapiens (Human), UniProt P06239); settings: 10000 nM, read-out: Percent Control
[15] = target: MARK4 (Homo sapiens (Human), UniProt Q96L34); settings: MARK4, 10000 nM; read-out: Percent Control
[16] = target: RSK2(Kin.Dom.1-N-terminal) (Homo sapiens (Human), UniProt P51812); settings: 10000 nM, read-out: Percent Control
[17] = target: EPHB3 (Homo sapiens (Human), UniProt P54753); settings: EPHB3, 10000 nM; read-out: Percent Control
[18] = target: RET(M918T) (Homo sapiens (Human), UniProt P07949, M918T); settings: 10000 nM, read-out: Percent Control
[19] = target: EGFR(L858R, T790M) (Homo sapiens (Human), UniProt P00533, L858R/T790M); settings: 10000 nM, read-out: Percent Control
[20] = target: TLK1 (Homo sapiens (Human), UniProt Q9UKI8); settings: TLK1, 10000 nM; read-out: Percent Control
[21] = target: WNK3 (Homo sapiens (Human), UniProt Q9BYP7); settings: WNK3, 10000 nM; read-out: Percent Control
[22] = target: RET(V804M) (Homo sapiens (Human), UniProt P07949, V804M); settings: 10000 nM, read-out: Percent Control
[23] = target: MARK1 (Homo sapiens (Human), UniProt Q9P0L2); settings: MARK1, 10000 nM; read-out: Percent Control
[24] = target: PAK6 (Homo sapiens (Human), UniProt Q9NQU5); settings: PAK6, 10000 nM; read-out: Percent Control
[25] = target: RIOK3 (Homo sapiens (Human), UniProt O14730); settings: RIOK3, 10000 nM; read-out: Percent Control
[26] = target: GSK3A (Homo sapiens (Human), UniProt P49840); settings: 10000 nM, read-out: Percent Control
[27] = target: CDK9 (Homo sapiens (Human), UniProt P50750); settings: CDK9, 10000 nM; read-out: Percent Control
[28] = target: YSK4 (Homo sapiens (Human), UniProt Q56UN5); settings: YSK4, 10000 nM; read-out: Percent Control
[29] = target: KIT(D816V) (Homo sapiens (Human), UniProt P10721, D816V); settings: 10000 nM, read-out: Percent Control
[30] = target: FLT3 (Homo sapiens (Human), UniProt P36888); settings: FLT3, 10000 nM; read-out: Percent Control
[31] = target: PIKFYVE (Homo sapiens (Human), UniProt Q9Y2I7); settings: 10000 nM, read-out: Percent Control
[32] = target: MAP4K3 (Homo sapiens (Human), UniProt Q8IVH8); settings: MAP4K3, 10000 nM; read-out: Percent Control
[33] = target: CSNK1A1L (Homo sapiens (Human), UniProt Q8N752); settings: 10000 nM, read-out: Percent Control

EPHB6, sequence (O15197 32-1021): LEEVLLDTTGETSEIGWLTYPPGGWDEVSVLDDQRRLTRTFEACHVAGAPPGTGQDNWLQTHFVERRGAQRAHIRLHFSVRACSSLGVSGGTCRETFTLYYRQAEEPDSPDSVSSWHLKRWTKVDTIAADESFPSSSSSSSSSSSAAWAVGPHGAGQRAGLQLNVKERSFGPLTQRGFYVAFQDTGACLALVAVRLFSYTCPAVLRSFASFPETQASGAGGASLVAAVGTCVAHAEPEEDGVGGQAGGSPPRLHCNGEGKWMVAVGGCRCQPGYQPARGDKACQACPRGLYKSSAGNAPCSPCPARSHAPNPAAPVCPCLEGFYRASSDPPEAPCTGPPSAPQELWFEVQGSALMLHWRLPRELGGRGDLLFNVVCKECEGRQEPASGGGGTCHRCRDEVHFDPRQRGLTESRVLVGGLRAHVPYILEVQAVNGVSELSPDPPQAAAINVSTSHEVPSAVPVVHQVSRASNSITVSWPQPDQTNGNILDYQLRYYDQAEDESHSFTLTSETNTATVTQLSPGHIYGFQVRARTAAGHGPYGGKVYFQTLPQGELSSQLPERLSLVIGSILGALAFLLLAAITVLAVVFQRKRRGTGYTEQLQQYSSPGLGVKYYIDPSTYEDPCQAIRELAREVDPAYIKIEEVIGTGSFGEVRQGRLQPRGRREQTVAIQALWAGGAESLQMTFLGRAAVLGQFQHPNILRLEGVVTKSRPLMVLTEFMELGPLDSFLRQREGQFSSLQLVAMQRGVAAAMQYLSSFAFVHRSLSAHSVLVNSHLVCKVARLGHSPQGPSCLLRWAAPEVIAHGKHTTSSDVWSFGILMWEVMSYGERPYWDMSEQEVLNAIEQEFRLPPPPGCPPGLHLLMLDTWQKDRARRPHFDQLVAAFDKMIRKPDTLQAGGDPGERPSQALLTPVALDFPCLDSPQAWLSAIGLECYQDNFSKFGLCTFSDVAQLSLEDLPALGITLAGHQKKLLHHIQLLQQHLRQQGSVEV
HIPK3, sequence (Q9H422 whole entry): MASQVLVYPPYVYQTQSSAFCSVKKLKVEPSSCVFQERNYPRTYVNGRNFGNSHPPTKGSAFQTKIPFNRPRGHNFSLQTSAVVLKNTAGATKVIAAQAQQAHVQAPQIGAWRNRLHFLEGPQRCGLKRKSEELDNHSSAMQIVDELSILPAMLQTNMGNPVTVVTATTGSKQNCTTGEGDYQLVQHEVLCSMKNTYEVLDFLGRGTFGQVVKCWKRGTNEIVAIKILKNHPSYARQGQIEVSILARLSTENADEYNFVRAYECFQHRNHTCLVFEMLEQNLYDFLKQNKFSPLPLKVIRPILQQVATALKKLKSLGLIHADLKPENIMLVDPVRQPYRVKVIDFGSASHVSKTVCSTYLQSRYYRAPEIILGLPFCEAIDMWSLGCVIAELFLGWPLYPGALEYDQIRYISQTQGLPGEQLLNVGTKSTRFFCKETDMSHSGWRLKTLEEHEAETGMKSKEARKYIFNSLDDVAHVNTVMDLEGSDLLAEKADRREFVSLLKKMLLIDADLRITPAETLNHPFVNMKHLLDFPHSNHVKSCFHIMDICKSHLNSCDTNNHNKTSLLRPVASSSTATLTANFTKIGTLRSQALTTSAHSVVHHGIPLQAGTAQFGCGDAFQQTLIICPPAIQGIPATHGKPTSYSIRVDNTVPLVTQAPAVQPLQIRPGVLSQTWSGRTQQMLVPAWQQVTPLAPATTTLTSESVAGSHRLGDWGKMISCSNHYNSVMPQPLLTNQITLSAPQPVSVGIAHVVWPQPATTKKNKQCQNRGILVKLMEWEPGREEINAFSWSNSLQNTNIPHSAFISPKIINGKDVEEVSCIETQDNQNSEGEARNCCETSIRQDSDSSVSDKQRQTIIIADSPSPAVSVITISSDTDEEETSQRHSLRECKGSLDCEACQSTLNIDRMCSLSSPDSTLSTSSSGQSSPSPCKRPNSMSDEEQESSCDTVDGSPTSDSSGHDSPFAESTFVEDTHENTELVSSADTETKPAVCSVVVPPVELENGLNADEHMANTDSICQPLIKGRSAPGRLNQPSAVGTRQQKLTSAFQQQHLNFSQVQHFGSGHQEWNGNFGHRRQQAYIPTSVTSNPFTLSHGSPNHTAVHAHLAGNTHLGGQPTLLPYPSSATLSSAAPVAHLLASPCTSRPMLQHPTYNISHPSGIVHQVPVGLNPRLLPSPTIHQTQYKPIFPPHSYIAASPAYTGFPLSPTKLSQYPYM
GSK3A, sequence (P49840 whole entry): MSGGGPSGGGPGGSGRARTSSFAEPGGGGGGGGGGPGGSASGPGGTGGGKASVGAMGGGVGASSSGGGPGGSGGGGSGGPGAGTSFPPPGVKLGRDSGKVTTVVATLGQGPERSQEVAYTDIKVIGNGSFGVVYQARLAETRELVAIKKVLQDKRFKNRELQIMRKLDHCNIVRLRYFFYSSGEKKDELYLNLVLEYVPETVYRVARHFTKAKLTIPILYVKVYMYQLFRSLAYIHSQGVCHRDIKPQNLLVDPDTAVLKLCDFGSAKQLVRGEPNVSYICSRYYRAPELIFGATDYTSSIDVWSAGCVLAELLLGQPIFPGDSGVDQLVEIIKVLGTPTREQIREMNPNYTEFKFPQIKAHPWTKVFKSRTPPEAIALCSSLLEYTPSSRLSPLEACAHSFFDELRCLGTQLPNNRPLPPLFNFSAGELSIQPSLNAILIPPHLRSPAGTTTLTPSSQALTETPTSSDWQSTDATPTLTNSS
ACVR1B, sequence (P36896 24-505): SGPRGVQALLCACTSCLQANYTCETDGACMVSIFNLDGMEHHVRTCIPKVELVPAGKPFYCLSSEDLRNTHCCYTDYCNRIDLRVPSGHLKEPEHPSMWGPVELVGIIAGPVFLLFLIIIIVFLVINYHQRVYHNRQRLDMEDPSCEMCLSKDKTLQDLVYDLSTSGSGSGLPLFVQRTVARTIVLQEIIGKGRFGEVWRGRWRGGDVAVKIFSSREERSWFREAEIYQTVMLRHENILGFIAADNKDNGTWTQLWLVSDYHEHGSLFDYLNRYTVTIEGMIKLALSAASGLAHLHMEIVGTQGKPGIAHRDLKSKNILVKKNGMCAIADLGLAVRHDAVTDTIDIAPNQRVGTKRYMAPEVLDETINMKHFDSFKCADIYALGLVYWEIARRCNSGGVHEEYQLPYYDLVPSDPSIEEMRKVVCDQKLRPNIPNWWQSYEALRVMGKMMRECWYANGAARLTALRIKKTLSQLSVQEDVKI
RIOK3, sequence (O14730 whole entry): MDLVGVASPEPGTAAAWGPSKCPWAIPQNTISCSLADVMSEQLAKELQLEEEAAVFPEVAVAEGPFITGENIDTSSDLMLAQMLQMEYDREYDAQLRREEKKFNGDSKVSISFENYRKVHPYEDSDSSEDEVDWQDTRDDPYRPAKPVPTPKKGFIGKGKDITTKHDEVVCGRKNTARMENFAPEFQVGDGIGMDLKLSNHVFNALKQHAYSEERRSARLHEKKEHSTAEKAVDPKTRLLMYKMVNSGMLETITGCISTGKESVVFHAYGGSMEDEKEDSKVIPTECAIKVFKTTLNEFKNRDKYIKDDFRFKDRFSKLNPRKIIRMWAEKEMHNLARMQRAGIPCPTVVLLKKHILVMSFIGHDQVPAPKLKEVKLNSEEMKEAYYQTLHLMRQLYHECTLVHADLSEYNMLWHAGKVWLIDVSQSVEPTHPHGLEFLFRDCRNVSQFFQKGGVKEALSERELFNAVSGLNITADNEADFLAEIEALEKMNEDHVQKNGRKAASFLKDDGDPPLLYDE
KIT(D816V), sequence (P10721 26-976 D816V): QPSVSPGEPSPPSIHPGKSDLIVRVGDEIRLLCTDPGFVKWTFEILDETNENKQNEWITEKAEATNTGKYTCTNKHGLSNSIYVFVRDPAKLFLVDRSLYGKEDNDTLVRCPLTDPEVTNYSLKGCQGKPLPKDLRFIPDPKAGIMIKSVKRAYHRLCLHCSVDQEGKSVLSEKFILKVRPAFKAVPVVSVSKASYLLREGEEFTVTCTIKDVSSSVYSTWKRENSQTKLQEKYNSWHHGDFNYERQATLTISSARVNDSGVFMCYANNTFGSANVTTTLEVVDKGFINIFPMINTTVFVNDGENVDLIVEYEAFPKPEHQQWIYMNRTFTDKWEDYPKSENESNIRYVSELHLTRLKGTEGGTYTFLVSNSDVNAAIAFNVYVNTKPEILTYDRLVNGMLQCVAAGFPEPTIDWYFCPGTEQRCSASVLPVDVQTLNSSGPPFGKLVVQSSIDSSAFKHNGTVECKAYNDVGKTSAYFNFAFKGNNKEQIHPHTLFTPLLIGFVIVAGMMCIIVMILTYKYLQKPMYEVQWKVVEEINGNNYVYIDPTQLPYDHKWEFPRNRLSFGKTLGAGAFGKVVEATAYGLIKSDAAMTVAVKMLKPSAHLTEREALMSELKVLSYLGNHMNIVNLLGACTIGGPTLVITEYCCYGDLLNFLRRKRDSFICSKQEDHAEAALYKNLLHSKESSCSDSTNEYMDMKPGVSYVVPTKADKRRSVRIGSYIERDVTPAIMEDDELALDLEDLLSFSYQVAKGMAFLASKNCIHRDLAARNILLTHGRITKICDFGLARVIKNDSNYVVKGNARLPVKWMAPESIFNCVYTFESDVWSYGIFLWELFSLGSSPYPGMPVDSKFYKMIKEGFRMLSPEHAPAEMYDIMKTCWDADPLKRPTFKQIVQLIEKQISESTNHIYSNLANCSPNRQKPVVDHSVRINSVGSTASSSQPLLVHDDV
CDK9, sequence (P50750 whole entry): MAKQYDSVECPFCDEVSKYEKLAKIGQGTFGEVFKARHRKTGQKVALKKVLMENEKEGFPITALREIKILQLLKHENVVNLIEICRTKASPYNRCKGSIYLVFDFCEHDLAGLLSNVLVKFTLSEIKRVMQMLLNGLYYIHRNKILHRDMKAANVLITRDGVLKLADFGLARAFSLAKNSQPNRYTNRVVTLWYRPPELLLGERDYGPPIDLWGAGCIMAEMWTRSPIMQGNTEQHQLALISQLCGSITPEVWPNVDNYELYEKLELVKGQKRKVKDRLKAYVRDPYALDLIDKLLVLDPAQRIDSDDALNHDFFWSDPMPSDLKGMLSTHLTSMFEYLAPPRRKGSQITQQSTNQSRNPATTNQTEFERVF

For `COc1cc(N2CCC(N3CCN(C)CC3)CC2)ccc1Nc1ncc2c(n1)N(C)c1sc(C)nc1C(=O)N2` [Compound 3, 6-((2-methoxy-4-(4-(4-methylpiperazin-1-yl)piperidin-1-yl)phenyl)amino)-2,4-dimethyl-4,9-dihydro-10H-pyrimido[5,4-b]thiazolo[5,4-e][1,4]diazepin-10-one], the remaining binding at 10 µM [1] was 88%, the remaining binding at 10 µM [2] was 79% and the remaining binding at 10 µM [3] was 97%. It also gave a remaining binding at 10 µM [4] of 68%, a remaining binding at 10 µM [5] of 100% and a remaining binding at 10 µM [6] of 88%. The remaining binding at 10 µM [7] was 45%, the remaining binding at 10 µM [8] was 87% and the remaining binding at 10 µM [9] was 80%. For the same compound, the remaining binding at 10 µM [10] was 87%, the remaining binding at 10 µM [11] was 71% and the remaining binding at 10 µM [12] was 100%. For the same compound, the remaining binding at 10 µM [13] was 67%, the remaining binding at 10 µM [14] was 45% and the remaining binding at 10 µM [15] was 83%. The remaining binding at 10 µM [16] was 99%, the remaining binding at 10 µM [17] was 70% and the remaining binding at 10 µM [18] was 87%. It also gave a remaining binding at 10 µM [19] of 100%, a remaining binding at 10 µM [20] of 90% and a remaining binding at 10 µM [21] of 100%. For the same compound, the remaining binding at 10 µM [22] was 100%, the remaining binding at 10 µM [23] was 87% and the remaining binding at 10 µM [24] was 97%. The remaining binding at 10 µM [25] was 79%, the remaining binding at 10 µM [26] was 82% and the remaining binding at 10 µM [27] was 74%. The remaining binding at 10 µM [28] was 100%, the remaining binding at 10 µM [29] was 11% and the remaining binding at 10 µM [30] was 100%. It also gave a remaining binding at 10 µM [31] of 98%, a remaining binding at 10 µM [32] of 100% and a remaining binding at 10 µM [33] of 78%.
With `COc1cc(N2CCC(N3CCN(C)CC3)CC2)ccc1Nc1ncc2c(n1)N(C)c1sc(C)nc1C(=O)N2C` [Compound 5, 6-((2-methoxy-4-(4-(4-methylpiperazin-1-yl)piperidin-1-yl)phenyl)amino)-2,4,9-trimethyl-4,9-dihydro-10H-pyrimido[5,4-b]thiazolo[5,4-e][1,4]diazepin-10-one] the remaining binding at 10 µM [1] was 94%, the remaining binding at 10 µM [2] was 97% and the remaining binding at 10 µM [3] was 98%. For the same compound, the remaining binding at 10 µM [4] was 98%, the remaining binding at 10 µM [5] was 21% and the remaining binding at 10 µM [6] was 95%. It also gave a remaining binding at 10 µM [7] of 100%, a remaining binding at 10 µM [8] of 93% and a remaining binding at 10 µM [9] of 95%. For the same compound, the remaining binding at 10 µM [10] was 100%, the remaining binding at 10 µM [11] was 90% and the remaining binding at 10 µM [12] was 100%. The remaining binding at 10 µM [13] was 100%, the remaining binding at 10 µM [14] was 100% and the remaining binding at 10 µM [15] was 87%. The remaining binding at 10 µM [16] was 97%, the remaining binding at 10 µM [17] was 100% and the remaining binding at 10 µM [18] was 100%. It also gave a remaining binding at 10 µM [19] of 80%, a remaining binding at 10 µM [20] of 81% and a remaining binding at 10 µM [21] of 97%. The remaining binding at 10 µM [22] was 73%, the remaining binding at 10 µM [23] was 89% and the remaining binding at 10 µM [24] was 100%. It also gave a remaining binding at 10 µM [25] of 99%, a remaining binding at 10 µM [26] of 100% and a remaining binding at 10 µM [27] of 98%. For the same compound, the remaining binding at 10 µM [28] was 93%, the remaining binding at 10 µM [29] was 100% and the remaining binding at 10 µM [30] was 99%. For the same compound, the remaining binding at 10 µM [31] was 60%, the remaining binding at 10 µM [32] was 100% and the remaining binding at 10 µM [33] was 100%.
